Laboratory results as given in US9862684B2, “Modulation of K2P channels” (The Regents of the University of California, priority 2013, dated 2018).

Legend:
K2P18.1 (TRESK) = target: T1, K2P18.1 (TRESK) (Mus musculus, UniProt Q6VV64); assay: Two-electrode voltage clamp, Xenopus oocytes expressing K2P18.1 (TRESK); format: cell-based, Murine
T1 construct: expressed in transfected cells; host or cells: Xenopus oocytes
T1 sequence (Q6VV64 1-394): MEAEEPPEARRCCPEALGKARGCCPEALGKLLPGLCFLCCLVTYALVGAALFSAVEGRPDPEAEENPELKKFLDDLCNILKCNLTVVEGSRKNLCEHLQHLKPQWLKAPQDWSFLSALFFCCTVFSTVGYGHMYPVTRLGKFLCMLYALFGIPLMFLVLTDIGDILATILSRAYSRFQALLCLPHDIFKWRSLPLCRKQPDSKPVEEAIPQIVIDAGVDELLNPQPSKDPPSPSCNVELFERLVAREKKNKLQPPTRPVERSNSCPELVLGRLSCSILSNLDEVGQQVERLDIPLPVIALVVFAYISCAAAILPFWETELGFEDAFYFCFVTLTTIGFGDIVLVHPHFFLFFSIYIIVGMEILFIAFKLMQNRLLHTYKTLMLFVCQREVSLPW
Method: FIG. 7 ML67-33 is a selective activator of heat- and mechanosensitive K2P channels. a-f, Exemplar I-V curves showing the effect of ML67-33 on a, K2P10.1 (TREK-2), b, K2P4.1 (TRAAK), c, K2P3.1 (TASK-1), d, K2P9.1 (TASK-3), e, K2P5.1 (TASK-2), and f, K2P18.1 (TRESK) measured in Xenopus oocytes in 2 mM [K^+]o pH 7.4. Currents were elicited by a voltage ramp from −150 to 50 mV, from a holding potential of −80 mV. g, Quantification of the effect of ML67-33 on the indicated channels. Data (mean±s.e., n≧6, N≧2) was normalized to basal channel activity and fitted to the Hill equation. […] Error bars indicate s.e., n≧6, N≧2.
Murine K2P channels were cloned into pGEMHE/pMO {Bagriantsev, 2011}, IRES-GFP (Invitrogen), or pYES2-MET25 (high copy 2μ, URA3) {Minor, 1999} for expression in oocytes, HEK-293T cells, and yeast, respectively, using standard molecular biology procedures, and verified by DNA sequencing.
Two-electrode voltage clamp recordings were performed from defolliculated stage V-VI Xenopus oocytes 24-48 hours after injection with 0.015-6.0 ng cRNA, using microelectrodes (0.3-3.0 MΩ) filled with 3M KCl. Data was acquired using the GeneClamp 500B (MDS Analytical Technologies) amplifier controlled by the pClamp software (Molecular Devices), and digitized at 1 kHz using Digidata 1332A (MDS Analytical Technologies). […]

Solubility (remarks) = format: physicochemical

With `CC1(C)c2cc(Cl)ccc2N(CCc2nnn[nH]2)c2ccc(Cl)cc21` [ML67-33, 2,7-dichloro-9,9-dimethyl-10-[2-(1H-tetrazol-5-yl)ethyl]acridine] the “functional effect (in words)” value (K2P18.1 (TRESK); applied at 100 μM) was “little or no functional effects”, the “Emax (fold)” value (K2P18.1 (TRESK); at 100 μM (FIG. 7 legend), ** in Table 1) was 0.9±0.1 fold and the “solubility (in words)” value (Solubility (remarks)) was “favorable solubility properties”.
